{
  "source": "paper PMC11575912",
  "about": "(Journal of Clinical Oncology, 2024)",
  "origin": "cited, not measured here",
  "key": {"[1]": {"system": "p110α over the β, δ, and γ isoforms", "details": "biochemical assays"}, "[2]": {"system": "CYP", "details": "in vitro or in the human mass balance study; ref unpublished data on file"}, "[3]": {"details": "once daily"}},
  "data": [
    {"compound": "C[C@H](Nc1ccc2c(c1)OCCn1cc(N3C(=O)OC[C@H]3C(F)F)nc1-2)C(N)=O", "note": "[inavolisib]", "values": [
      {"measurement": "Selectivity for p110α over the β, δ, and γ isoforms", "setting": "[1]", "value": "> 300", "unit": "fold"},
      {"measurement": "CYP-mediated metabolism", "setting": "[2]", "value": "did not undergo extensive CYP-mediated metabolism"},
      {"measurement": "Single-agent maximum tolerable dose", "setting": "[3]", "value": 9, "unit": "mg"}
    ]}
  ]
}
